Data on two compounds can be found in US20180221384A1, “COMPOSITIONS OF MIDAZOLAM FOR BUCCAL ADMINISTRATION IN THE TREATMENT OF SEIZURES TO OBTAIN RAPID ONSET OF ACTION” (SWIPP AB, priority 2015, published 2018).

Structures can show the parent of a compound that is named as a salt. Where two headings read alike, the source gives them in different places. A value given as a limit tells only on which side of the number the result lay.

A short description of data set [1]: Pilot in vivo study: midazolam film preparation applied on the oro-mucosal membrane, plasma levels by LC-MS/MS. Particulars: for Corresponding plasma levels in children weighing 20 kg: at least; for Side-effects: healthy volunteers. As for the experimental part:
Film preparations weighing approximately 0.07 g (1×2 cm) containing 2 mg midazolam hydrochloride were applied on the oro-mucosal membrane in healthy volunteers (body weight 90 kg). Venous blood samples were drawn 6, 12 and 18 minutes after application.
Film preparations weighing approximately 0.07 g (1×2 cm) containing 1 mg midazolam hydrochloride were applied on the oro-mucosal membrane in healthy volunteers (body weight 90 kg). Venous blood samples were drawn 6, 12 and 18 minutes after application.

For data set [2] the following is noted: cited from earlier work.
The conditions of data set [3]: cited from earlier work. The source holds these as a separate data set.
Setting [4] is: midazolam solution 5 mg buccal, healthy volunteers (Schwagmeier et al. 1998).
Where [5] appears, read: human, plasma, other: applied on the oro-mucosal membrane, 1 mg.

With `Cc1ncc2n1-c1ccc(Cl)cc1C(c1ccccc1F)=NC2` [midazolam, Midazolam], the Blood levels in data set [1] (buccal film or wafer, dose 2 mg, adult volunteers (summary in description)) was 5 to 10 ng/mL; in data set [3] (setting [4]), 5 to 10 ng/mL. Moreover, the Plasma level entry in data set [1] (buccal film, dose 1 mg midazolam, adult 90 kg (summary in description)) is on record as “about 5 ng/mL”. Further, the “Plasma level (in words)” value in data set [1] (buccal film, dose 1 mg, adults average body weight 90 kg) was “therapeutic levels”. The “Time to anticonvulsive effect” value was at most 5 min in data set [2] (adults administered 10-20 mg (Nakken et al. 2011)) and at most 5 min in data set [2] (children, buccal dose 0.2 mg/kg (Talukbar et al. 2009)). Moreover, the “Time to plasma concentration of 5 ng/mL” value in data set [3] (approx. 10 mg midazolam, adult volunteers, most of the subjects (Scott et al. 1998)) was 5 to 10 min. The “Time to blood levels of 5-10 ng/mL” value in data set [3] (setting [4]) is 3 to 6 min.
Regarding `Cc1ncc2n1-c1ccc(Cl)cc1C(c1ccccc1F)=NC2` [midazolam hydrochloride, Midazolam hydrochloride], the “Corresponding plasma levels in children weighing 20 kg” value in data set [1] (extrapolated from adults given 1 mg film) is 15 to 20 ng/mL; in data set [1] (extrapolated from adults given 2 mg film), 15 to 50 ng/mL. In addition, the Side-effects entry in data set [1] (film containing 1 mg midazolam hydrochloride) and in data set [1] (film containing 2 mg midazolam hydrochloride) was “No side-effects were observed” throughout. The Average plasma levels in data set [1] (film containing 2 mg midazolam hydrochloride, oro-mucosal, healthy volunteers 90 kg) is on record as 5 ng/mL. For the same compound, the concentration at 6 min in data set [1] (setting [5]) was determined as 1 ng/mL. In data set [1] (setting [5]), this compound came in with a concentration at 12 min of 4.6 ng/mL.
